Source: patent US4397868A, “Method of treating atherosclerosis with trisubstituted ureas” (American Cyanamid Company, priority 1982, dated 1983)

System: fatty acyl CoA:cholesterol acyl transferase (ACAT)
Assay: In vitro inhibition of fatty acyl CoA:cholesterol acyl transferase (ACAT), rat adrenal microsomal supernatant
Type: biochemical
Conditions: test compound final concentration 5.2 μg./ml., 14C-oleoyl CoA, 37° C., 10 minutes
Experimental: A representative compound of the present invention was assayed for a biological activity related to potential use as an antiatherosclerotic agent. The compound was tested in vitro for its ability to inhibit the enzyme fatty acyl CoA:cholesterol acyl transferase (ACAT).
A representative compound was tested for its ability to inhibit ACAT according to the following procedure:
Rat adrenals were homogenized in 0.2 M monobasic potassium phosphate buffer, pH 7.4, and centrifuged at 1000 times gravity for 15 minutes at 5° C. The supernatant, containing the microsomal fraction, served as the source of the cholesterol-esterifying enzyme, fatty acyl CoA:cholesterol acyl transferase (ACAT). A mixture comprising 50 parts of adrenal supernatant, 10 parts of albumin (BSA) (50 mg./ml.), 3 parts of test compound (final concentration 5.2 μg./ml.) and 500 parts of buffer was preincubated at 37° C. for 10 minutes. After treatment with 20 parts of oleoyl CoA (^14 C-0.4 μCi) the mixture was incubated at 37° C. for 10 minutes. A control mixture, omitting the test compound, was prepared and treated in the same manner. The lipids from the incubation mixture were extracted into an organic solvent and separated by thin-layer chromatography. The cholesterol ester fraction was counted in a scintillation counter. […]

- inhibited ACAT: 82%
Structure (SMILES): CCCCN(Cc1ccccc1)C(=O)Nc1ccccc1 [Example 1, 1-Benzyl-1-(n-butyl)-3-(phenyl)urea]
